Experimental data reported in US8558011B2, “Cold menthol receptor-1 antagonists” (Janssen Pharmaceutica, NV, priority 2010, dated 2013).
Values joined by “and” are separate entries in the source; they are usually repeats but may differ in a detail not shown here. Identical values can stand only once.

Target: T1, canine TRPM8 (Canis lupus familiaris, UniProt Q1A7N1)
T1 construct: expressed in transfected cells
Assay: In Vitro Canine TRPM8 Functional Assay (Ca2+-sensitive fluorescent dye, icilin activation, FLIPR/FDSS)
Assay type: cell-based
Settings: HEK293 cells stably expressing canine TRPM8, icilin activation; for IC50: eight-point dose-response; for % I (0.5 μM): compound at 0.5 μM; for % I (1 μM): compound at 1 μM
Experimental: The functional activity of compounds of Formula (I) was determined by measuring changes in intracellular calcium concentration using a Ca^2+-sensitive fluorescent dye. The changes in fluorescent signal were monitored by a fluorescence plate reader, either a FLIPR™ (Molecular Devices) or FDSS (Hamamatsu).
HEK293 cells stably expressing canine TRPM8 were routinely grown as monolayers in Dulbecco's minimum essential medium supplemented with 10% FBS, 1 mM L-glutamine, 100 units/mL penicillin, 100 ug/mL streptomycin and 400 μg/mL G418. Cells were maintained in 5% CO2 at 37° C. At 24 hrs prior to assay, cells were seeded in clear-base poly-D-lysine coated 384-well plates (BD Biosciences, NJ, USA) at a density of 5,000 cells per well in culture medium and grown overnight in 5% CO2 at 37° C. On assay day, growth media was removed and cells were loaded with Calcium 3 Dye (Molecular Devices) for 35 min at 37° C., under 5% CO2 and then for 25 min at room temperature and atmosphere. Subsequently, cells were tested for agonist-induced increases in intracellular Ca^2+ levels using FLIPR™ or FDSS. Cells were challenged with a compound of Formula (I) (at varying concentrations) and intracellular Ca^2+ was measured for 5 min prior to the addition of icilin to all wells to achieve a final concentration which produces approximately an 80% maximal response.
Basal FI was subtracted prior to normalizing data to percent of maximal response. Curves were generated using the average of quadruplicate wells for each data point, were analyzed using nonlinear regression of either sigmoidal dose response or sigmoidal dose response (variable slope). Finally, the EC50 and IC50 values were calculated with the best-fit dose curve determined by GraphPad Prism.

T1 sequence (Q1A7N1 1-1104): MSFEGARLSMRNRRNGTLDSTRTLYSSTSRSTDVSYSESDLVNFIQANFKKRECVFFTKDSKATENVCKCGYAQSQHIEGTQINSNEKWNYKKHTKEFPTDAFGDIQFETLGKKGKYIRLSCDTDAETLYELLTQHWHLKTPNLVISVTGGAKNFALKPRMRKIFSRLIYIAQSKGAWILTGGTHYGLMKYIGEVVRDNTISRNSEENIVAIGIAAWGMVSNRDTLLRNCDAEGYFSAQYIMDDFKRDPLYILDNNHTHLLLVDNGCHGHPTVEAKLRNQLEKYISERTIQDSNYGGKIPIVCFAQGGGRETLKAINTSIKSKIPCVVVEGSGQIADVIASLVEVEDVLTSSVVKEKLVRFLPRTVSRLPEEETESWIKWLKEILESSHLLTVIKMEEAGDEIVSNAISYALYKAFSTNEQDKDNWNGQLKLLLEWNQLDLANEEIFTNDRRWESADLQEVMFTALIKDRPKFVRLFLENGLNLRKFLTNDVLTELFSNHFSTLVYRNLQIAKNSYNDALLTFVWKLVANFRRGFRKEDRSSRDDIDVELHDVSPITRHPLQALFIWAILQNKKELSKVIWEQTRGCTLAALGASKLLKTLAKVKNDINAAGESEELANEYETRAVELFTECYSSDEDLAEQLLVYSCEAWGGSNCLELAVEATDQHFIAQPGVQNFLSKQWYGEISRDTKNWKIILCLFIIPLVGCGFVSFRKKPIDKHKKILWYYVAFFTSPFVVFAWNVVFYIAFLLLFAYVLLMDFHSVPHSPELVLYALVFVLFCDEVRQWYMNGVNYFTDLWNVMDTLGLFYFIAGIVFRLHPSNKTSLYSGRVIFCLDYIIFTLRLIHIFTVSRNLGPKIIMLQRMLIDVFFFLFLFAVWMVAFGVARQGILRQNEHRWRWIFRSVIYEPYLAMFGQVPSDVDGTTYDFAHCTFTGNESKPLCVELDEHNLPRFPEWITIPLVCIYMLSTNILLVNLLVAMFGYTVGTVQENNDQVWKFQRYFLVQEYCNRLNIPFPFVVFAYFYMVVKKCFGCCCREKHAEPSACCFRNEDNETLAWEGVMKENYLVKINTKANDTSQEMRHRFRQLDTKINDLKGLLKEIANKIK

Structure (SMILES)	IC50	% I (0.5 μM)	% I (1 μM) [%]
CC(C)OP(=O)(OC(C)C)C(Cc1cccc(Cl)c1)c1sc2ccccc2c1Br (stereo not drawn) [Cpd 166]	18 nM and 14 nM	102%	103
CC(C)OP(=O)(OC(C)C)C(Cc1ccc(Cl)c(C(F)(F)F)c1)c1sc2ccccc2c1Cl (stereo not drawn) [Cpd 167]	97 nM	104%	
CC(C)OP(=O)(OC(C)C)C(Cc1cccc(C(F)(F)F)c1F)c1sc2ccccc2c1Cl (stereo not drawn) [Cpd 168]	76 nM	104%	
CC(C)OP(=O)(OC(C)C)C(Cc1cc(F)cc(C(F)(F)F)c1)c1sc2ccccc2c1Cl (stereo not drawn) [Cpd 169]	96 nM	104%	
CC(C)OP(=O)(OC(C)C)C(Cc1cccc(C(F)(F)F)c1)c1sc2ccccc2c1Cl (stereo not drawn) [Cpd 170]	73 nM	103%	
CC(C)OP(=O)(OC(C)C)C(Cc1cc(C(F)(F)F)cc(C(F)(F)F)c1)c1sc2ccccc2c1Cl (stereo not drawn) [Cpd 171]	221 nM	95%	
CC(C)OP(=O)(OC(C)C)C(Cc1cc(C(F)(F)F)ccc1F)c1sc2ccccc2c1Cl (stereo not drawn) [Cpd 172]	105 nM	104%	
CC(C)OP(=O)(OC(C)C)C(Cc1ccccc1C(F)(F)F)c1sc2ccccc2c1Cl (stereo not drawn) [Cpd 173]	140 nM	103%	
CCC(C)P(=O)(C(C)CC)C(OCc1ccc(F)c(F)c1)c1sc2ccccc2c1Br (stereo not drawn) [Cpd 204]	92 nM		100
CC(C)OP(=O)(OC(C)C)C(Cc1ccc(F)c(F)c1)c1oc2cccc(F)c2c1Br (stereo not drawn) [Cpd 205]	50 nM		101
CCOP(=O)(OCC)C(Cc1ccc(F)c(F)c1)c1oc2cccc(F)c2c1Br (stereo not drawn) [Cpd 206]	98 nM		100
CC(C)OP(=O)(OC(C)C)C(Cc1ccc(F)c(F)c1)c1sc2ncccc2c1Br (stereo not drawn) [Cpd 207]	51 nM	99%	
CCOP(=O)(OCC)C(Cc1ccc(F)c(F)c1)c1sc2ccccc2c1-c1ccsc1 (stereo not drawn) [Cpd 208]	104 nM	104%	
CC(C)CCOP(=O)(OCCC(C)C)C(Cc1ccc(F)c(F)c1)c1sc2ccccc2c1Br (stereo not drawn) [Cpd 211]	95 nM	97%	
CC(=O)OCCOP(=O)(OCCOC(C)=O)C(Cc1ccc(F)c(F)c1)c1sc2ccccc2c1Br (stereo not drawn) [Cpd 213]	202 nM	100%	
CCOP(=O)(OCC)C(Cc1ccc(F)c(F)c1)c1sc2ccccc2c1-c1ccccc1O (stereo not drawn) [Cpd 215]	85 nM	101%	
CCOP(=O)(OCC)C(Cc1ccc(F)c(F)c1)c1sc2ccccc2c1-c1ccccc1F (stereo not drawn) [Cpd 216]	126 nM	100%	
CCOP(=O)(OCC)C(Cc1ccc(F)c(F)c1)c1sc2ccccc2c1-c1cccc(C(N)=O)c1 (stereo not drawn) [Cpd 218]	483 nM	79%	
CCOP(=O)(OCC)C(Cc1ccc(F)c(F)c1)c1sc2ccccc2c1-c1ccc(F)cc1 (stereo not drawn) [Cpd 220]	207 nM	101%	
CC(C)OP(=O)(OC(C)C)C(Cc1ccc(F)c(C(F)(F)F)c1)c1sc2cccc(F)c2c1Br (stereo not drawn) [Cpd 222]	33 nM	103%	

Structure (SMILES)	IC50	% I (0.5 μM)	% I (1 μM) [%]
CCOP(=O)(OCC)C(Cc1ccc(F)c(C(F)(F)F)c1)c1sc2cccc(F)c2c1Br (stereo not drawn) [Cpd 223]	52 nM	102%	
CCOP(=O)(OCC)C(Cc1ccc(F)c(F)c1)c1sc2cccc(F)c2c1Br (stereo not drawn) [Cpd 224]	44 nM	102%	
CCOP(=O)(OCC)C(Cc1ccc(F)c(O)c1)c1sc2ccccc2c1Br (stereo not drawn) [Cpd 225, [1-(3-Bromo-benzo[b]thiophen-2-yl)-2-(4-fluoro-3-hydroxy-phenyl)-ethyl]-phosphonic acid diethyl ester]		103%	
CCOP(=O)(OCC)C(Cc1c(F)c(F)c(O)c(F)c1F)c1sc2ccccc2c1Br (stereo not drawn) [Cpd 228]	129 nM	94%	
CC(C)OP(=O)(OC(C)C)C(Cc1c(F)c(F)c(O)c(F)c1F)c1sc2ccccc2c1Br (stereo not drawn) [Cpd 229]	156 nM	95%	
CC(C)OP(=O)(OC(C)C)C(Cc1cccc(O)c1F)c1sc2ccccc2c1Br (stereo not drawn) [Cpd 230]	10 nM	97%	
CCOP(=O)(OCC)C(Cc1cc(O)c(Cl)cc1F)c1sc2ccccc2c1Br (stereo not drawn) [Cpd 231]	122 nM	98%	
CC(C)OP(=O)(OC(C)C)C(Cc1cc(O)c(Cl)cc1F)c1sc2ccccc2c1Br (stereo not drawn) [Cpd 232]	63 nM	99%	
CC(C)OP(=O)(OC(C)C)[C@H](Cc1ccc(F)c(F)c1)c1sc2ccccc2c1Br [Cpd 235, (R)-[1-(3-Bromo-benzo[b]thiophen-2-yl)-2-(3,4-difluoro-phenyl)-ethyl]-phosphonic acid diisopropyl ester]		56%	
CCOP(=O)(OCC)C(Cc1ccc(F)cc1C(F)(F)F)c1sc2ccccc2c1Br (stereo not drawn) [Cpd 245]	124 nM	103%	
CCOP(=O)(OCC)C(Cc1ccc(SC)cc1)c1sc2ccccc2c1Br (stereo not drawn) [Cpd 247]	121 nM	103%	
CC(C)OP(=O)(OC(C)C)C(Cc1ccc(F)c(Cl)c1)c1sc2ccccc2c1Br (stereo not drawn) [Cpd 248]	21 nM	104%	
CCOP(=O)(OCC)C(Cc1ccccc1C(F)(F)F)c1sc2ccccc2c1Cl (stereo not drawn) [Cpd 279]	291 nM	97%	
CCOP(=O)(OCC)C(Cc1cccc(C(F)(F)F)c1Cl)c1sc2ccccc2c1Cl (stereo not drawn) [Cpd 280]	227 nM	101%	
CCOP(=O)(OCC)C(Cc1cccc(C(F)(F)F)c1F)c1sc2ccccc2c1Cl (stereo not drawn) [Cpd 281]	131 nM	102%	
CCOP(=O)(OCC)C(Cc1cc(C(F)(F)F)cc(C(F)(F)F)c1)c1sc2ccccc2c1Cl (stereo not drawn) [Cpd 282]	235 nM	100%	
CCOP(=O)(OCC)C(Cc1ccc(SC(F)(F)F)cc1)c1sc2ccccc2c1Cl (stereo not drawn) [Cpd 283]	125 nM	103%	
CCOP(=O)(OCC)C(Cc1ccc(F)cc1)c1sc2ccccc2c1Cl (stereo not drawn) [Cpd 284]	79 nM and 65 nM	103% and 102%	
CCOP(=O)(OCC)C(Cc1ccc(C(F)(F)F)cc1)c1sc2ccccc2c1Cl (stereo not drawn) [Cpd 285]	125 nM	103%	
CCOP(=O)(OCC)C(Cc1cc(C(F)(F)F)ccc1F)c1sc2ccccc2c1Cl (stereo not drawn) [Cpd 286]	127 nM	102%	

Structure (SMILES)	IC50	% I (0.5 μM)	% I (1 μM) [%]
CCOP(=O)(OCC)C(Cc1ccc(Cl)c(C(F)(F)F)c1)c1sc2ccccc2c1Cl (stereo not drawn) [Cpd 287]	124 nM	103%	
CC(C)OP(=O)(OC(C)C)C(Cc1ccc(Cl)cc1)c1sc2ccccc2c1Br (stereo not drawn) [Cpd 288]	65 nM	103%	
CC(C)OP(=O)(OC(C)C)C(Cc1ccc(C(F)(F)F)cc1F)c1sc2ccccc2c1Br (stereo not drawn) [Cpd 289]	51 nM	103%	
CCOP(=O)(OCC)C(Cc1cccc(Cl)c1)c1sc2ccccc2c1Cl (stereo not drawn) [Cpd 290]	115 nM	103%	
CCOP(=O)(OCC)C(Cc1ccc(C(F)(F)F)cc1F)c1sc2ccccc2c1Cl (stereo not drawn) [Cpd 291]	156 nM	103%	
CCOP(=O)(OCC)C(Cc1ccc(OC)c(C(F)(F)F)c1)c1sc2ccccc2c1Cl (stereo not drawn) [Cpd 292]	216 nM	99%	
CCOP(=O)(OCC)C(Cc1ccc(Cl)cc1)c1sc2ccccc2c1Cl (stereo not drawn) [Cpd 293]	156 nM	103%	
CCOP(=O)(OCC)C(Cc1ccc(F)c(C(F)(F)F)c1)c1sc2ccccc2c1Cl (stereo not drawn) [Cpd 294]	118 nM	103%	
CCOP(=O)(OCC)C(Cc1cccc(Br)c1)c1sc2ccccc2c1Br (stereo not drawn) [Cpd 295]	31 nM and 16 nM	102% and 103%	
CCOP(=O)(OCC)C(Cc1cccc(SC(F)(F)F)c1)c1sc2ccccc2c1Cl (stereo not drawn) [Cpd 296]	137 nM	102%	
CCOP(=O)(OCC)C(Cc1ccc(F)c(Cl)c1)c1sc2ccccc2c1Cl (stereo not drawn) [Cpd 297]	40 nM	103%	
CCOP(=O)(OCC)C(Cc1ccc(S(=O)(=O)C(F)(F)F)cc1)c1sc2ccccc2c1Cl (stereo not drawn) [Cpd 300]	89 nM	103%	
CC(C)OP(=O)(OC(C)C)C(Cc1cccc(OC(F)(F)F)c1)c1sc2ccccc2c1Cl (stereo not drawn) [Cpd 301]	54 nM	102%	
CC(C)OP(=O)(OC(C)C)C(Cc1ccc(Cl)c(F)c1)c1sc2ccccc2c1Cl (stereo not drawn) [Cpd 302]	79 nM	103%	
CC(C)OP(=O)(OC(C)C)C(Cc1cc(Cl)ccc1F)c1sc2ccccc2c1Cl (stereo not drawn) [Cpd 303]	49 nM	102%	
CC(C)OP(=O)(OC(C)C)C(Cc1ccc(SC(F)(F)F)cc1)c1sc2ccccc2c1Cl (stereo not drawn) [Cpd 304]	28 nM	102%	
CCOP(=O)(OCC)C(Cc1cc(Cl)ccc1F)c1sc2ccccc2c1Cl (stereo not drawn) [Cpd 305]	70 nM	102%	
CC(C)OP(=O)(OC(C)C)C(Cc1ccc(F)cc1)c1sc2ccccc2c1Cl (stereo not drawn) [Cpd 306]		101% and 102%	
